# Measured values reported in patent US8828972B2, “Formulations containing alkylphosphocholines using novel negative charge carriers” (Max-Planck-Gesellschaft zur Foerderung der Wissenschaften …, priority 2004, dated 2014).
# Columns and labels:
# [1] = test system: Cushing's and bladder tumours; assay: Treatment of cancer in dogs; type: in vivo
# Tumour cells = assay: Sensitisation of tumour cells to radiation therapy; type: cell-based; details: tumour cells doped with the substance
compound,measurement,setting,value
"CCCCCCCCC=CCCCCCCCCCCCCOP(=O)([O-])OCCC[N+](C)(C)C [erucylphospho-(N,N,N-trimethyl)-propylammonium]",treatment of Cushing's and bladder tumours,[1],treated successfully
CCCCCCCCC=CCCCCCCCCCCCCOP(=O)([O-])OCCC[N+](C)(C)C [erufosin],sensitisation to radiation therapy,Tumour cells,sensitised to radiation therapy
